How the values were obtained:
[1] = Stability in human liver microsome; type: in vitro ADME; conditions: human, microsomes, pH 4
Method: A mixture of the compound of the invention and human liver microsome in 0.1 M potassium phosphate buffer (containing 1.0 mM EDTA, pH=4) was incubated at 37° C., the sample concentrations at different incubation times were measured, and then the half life of the compound was calculated by plotting “the relative amount of the compound” against “incubation time” by using software GraphPad Prism 5.01, and intrinsic clearance was calculated. The experiment system shown as table 5:
The sample was analyzed by LC/MS/MS (ESI […] source and waters xbridge C18 EB-A-1420 chromatographic column were adopted), the mobile phases were an aqueous solution with 2 mM ammonium formate and 0.1% formic acid (mobile phase A) and an methanol solution with 2 mM ammonium formate and 0.1% formic acid (mobile phase B), the flow rate was 0.4 mL/min; the column temperature was 40° C. The ratio of the sample peak area to the internal standard peak area was obtained through LC/MS/MS analysis, the content of the compound at 0 time point was as 100%, the relative content of the compound at each time point was calculated. The half life of the compound was calculated by plotting “the relative amount of the compound” against “incubation time”, and intrinsic clearance was calculated.
The positive control is suvorexant.

[2] = target: T1, hERG channel (Homo sapiens, UniProt Q12809); experiment: hERG fluorescence polarization assay (potential of inducing QT interval prolongation); type: binding
T1 construct: purchased Invitrogen
Method: The potential of the compound disclosed herein inducing QT interval prolongation was evaluated by detecting if the compound would block the hERG channel. The specific test method is as follows:
Precisely weighed compound disclosed herein was dissolved in DMSO to formulate a solution at the highest concentration of 10.0 mM, and then the solution was diluted to a initial concentration of 120.0 μM with hERG FP Assay Buffer (Invitrogen); the hERG Tracer Red stock solution (Invitrogen) and the positive control E-4031 stock solution (Invitrogen) were respectively diluted to initial concentrations of 4.0 nM and 120.0 μM with hERG FP Assay Buffer (Invitrogen). […]
The above-mentioned solution of the compound disclosed herein and E-4031 at the initial concentration of 120 μM were respectively diluted with hERG FP Assay Buffer 5-fold in series to provide 8 concentration of 120.0 μM, 24.0 μM, 4.8 μM, 960.0 nM, 192.0 nM, 38.4 nM, 7.7 nM and 1.5 nM. […] After that, the 384-well plate was put into an oscillator (PHMP-4, Grant-sio), in 25° C., 250 rpm, to incubate for 4 hours, and the fluorescence polarization values were measured by multi-function microplate reader (PHERAStarFS, BMG LABTECH) and corrected with the minimum and maximum fluorescence polarization values of E-4031, and the IC50 of the compound disclosed herein was calculated by GraphPad software. […]

[3] = Pharmacokinetic evaluation after intravenous or gavage administration to rats; type: in vivo, SD rats; conditions: SD, rat, in vivo

T1 sequence (Q12809 whole entry): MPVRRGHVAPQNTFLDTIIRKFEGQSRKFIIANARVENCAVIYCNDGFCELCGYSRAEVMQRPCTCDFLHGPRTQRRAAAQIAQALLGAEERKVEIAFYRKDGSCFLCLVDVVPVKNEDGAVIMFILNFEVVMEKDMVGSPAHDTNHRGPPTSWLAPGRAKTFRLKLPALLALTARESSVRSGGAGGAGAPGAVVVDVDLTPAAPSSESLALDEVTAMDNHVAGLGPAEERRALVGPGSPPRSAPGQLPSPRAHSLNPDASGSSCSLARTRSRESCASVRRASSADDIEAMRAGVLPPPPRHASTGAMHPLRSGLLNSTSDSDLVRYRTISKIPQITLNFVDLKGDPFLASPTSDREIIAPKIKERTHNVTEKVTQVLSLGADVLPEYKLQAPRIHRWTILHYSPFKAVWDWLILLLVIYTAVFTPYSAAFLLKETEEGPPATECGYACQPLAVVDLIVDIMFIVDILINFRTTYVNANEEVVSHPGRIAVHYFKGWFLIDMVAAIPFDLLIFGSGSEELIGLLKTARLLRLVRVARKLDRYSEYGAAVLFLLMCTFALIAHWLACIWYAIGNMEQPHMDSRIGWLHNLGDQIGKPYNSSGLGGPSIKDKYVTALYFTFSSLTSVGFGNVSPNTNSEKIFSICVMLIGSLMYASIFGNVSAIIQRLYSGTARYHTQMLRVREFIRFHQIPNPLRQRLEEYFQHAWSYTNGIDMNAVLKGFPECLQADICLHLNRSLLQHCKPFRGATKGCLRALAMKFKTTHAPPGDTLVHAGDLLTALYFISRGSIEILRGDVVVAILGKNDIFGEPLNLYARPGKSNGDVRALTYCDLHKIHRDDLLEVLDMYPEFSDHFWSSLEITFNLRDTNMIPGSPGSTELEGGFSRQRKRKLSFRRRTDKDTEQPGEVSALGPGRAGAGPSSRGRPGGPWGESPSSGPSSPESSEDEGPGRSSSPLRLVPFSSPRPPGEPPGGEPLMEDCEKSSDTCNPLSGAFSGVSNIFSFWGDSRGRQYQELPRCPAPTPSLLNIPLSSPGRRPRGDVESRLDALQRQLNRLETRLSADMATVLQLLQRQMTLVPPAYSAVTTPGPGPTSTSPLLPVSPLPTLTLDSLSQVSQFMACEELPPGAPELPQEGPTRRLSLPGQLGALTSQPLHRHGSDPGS

Compound `Cc1ccc(-n2nccn2)c(C(=O)N2CC3CN(c4nc5cc(Cl)ccc5o4)CC3C2)c1` (stereo not shown) [Example 1, (5-(5-chlorobenzo[d]oxazol-2-yl)hexahydropyrrolo[3,4-c]pyrrol-2(1H)-yl)(5-methyl-2-(2H-1,2,3-triazol-2-yl)phenyl)methanone] has a CLint scaled at 1 μM [1] of 35.1 mL/min/kg, a half-life at 1 μM [1] of 49.5 min and an IC50 [2] of 3.28 µM. It also gave an AUC(0-inf) ([3]; iv, 1 mg/kg) of 417 ng·h/mL, an AUC(0-t) ([3]; iv, 1 mg/kg) of 415 ng·h/mL and a Cmax ([3]; iv, 1 mg/kg) of 646 ng/mL. For the same compound, the MRT inf ([3]; iv, 1 mg/kg) was 38.3 min, the Vd ([3]; iv, 1 mg/kg) was 1.53 L/kg and the clearance ([3]; iv, 1 mg/kg) was 40 mL/min/kg. The half-life ([3]; iv, 1 mg/kg) was 40.6 min, the AUC(0-inf) ([3]; po, 2.5 mg/kg) was 659 ng·h/mL and the AUC(0-t) ([3]; po, 2.5 mg/kg) was 482 ng·h/mL. The Cmax ([3]; po, 2.5 mg/kg) was 181 ng/mL, the F ([3]; po, 2.5 mg/kg) was 50.1% and the MRT inf ([3]; po, 2.5 mg/kg) was 182 min. The half-life ([3]; po, 2.5 mg/kg) was 133 min.
